# Data published in patent US20190038674A1, “Formulation for the Treatment of Diabetes” (priority 2013, published 2019).
# Several values for one entry are separate records, joined by “and”; a condition that tells them apart may be missing. Equal entries are not always repeated.
# Columns and labels:
# Format in all cases: in vivo, Wistar Albino rat
# [1] = system: streptozotocin treated diabetic rats; assay: Fasting blood glucose in streptozotocin induced diabetic rats, 15 days of treatment; details: for Blood glucose on 15th day: Glyclazide 1.44 mg/200 g body weight, single oral dose daily, day 1 to 15; for Blood glucose on 1st day: before treatment, group later given Glyclazide 1.44 mg/200 g body weight oral daily
# Protocol: Albino Wistar rats of both sex (male and female) were procured from the laboratory of Columbia Institute of Pharmacy Tekari, Raipur 493111 (C.G.), India, and were maintained under a 12 h light/dark cycle and allowed for feed and water without limit. Approved experimental protocol in accordance with the guidelines provided by the committee for the control and supervision of experiments on animals (CPCSEA). The experimental rats were registered by CPCSEA and registration number was 1321/ac/10/CPCSEA.
# A. Species: Wistar Albino rat
# (§1) Diabetes was induced in rats by the intra peritoneal injection of streptozotocin (Himedia) at a dose of 50 mg/kg body weight dissolved in citrate buffer (0.1 M, pH 4.5) in the volume of 1 ml/kg. The diabetic rats were given 5% w/v glucose solution orally in order to prevent hypoglycemia during the first day after the streptozotocin administration. Three days after the injection (six group), the blood glucose levels were measured and the animals with blood glucose levels above 300 mg/dl were considered as being diabetic and were used in the subsequent experiments. In all the experiments, rats were fasted for 16 hr prior to streptozotocin injection. • a. Total units=202.5 • b. 1 ml=40 units, 0.1 ml=4 units • c. Therefore total units 202.5/40 units=5.06 ml of streptozotocin solution • d. Freshly prepared streptozotocin solution (5.06 ml of solution/36 rats according to body weight) fed as a single dose only once to induce diabetes.
# (§2) Experimental rats were divided in 4 groups of 6 rats per group and 4th group further divided in 4 groups with 6 rats in each sub group. The details of treatments were given below:
# c. Group 3—Standard drug group—Diabetic animals received daily a single oral dose of the reference drug Glyclazide 1.44 mg/200 g body weight from day 1 to 15. […]
# (§3) Blood samples were collected retro-orbitally from the inner canthus of the eye under light ether anesthesia using capillary tubes (Micro Hemocrit Capillariea, Mucaps) as described by Sorg and Buckner (1964); Blood was transferred into fresh vials and serum was separated by centrifuging at 2000 rpm for 2 min. Blood glucose levels were measured using Accu-Check glucose kit.
# (§4) To observe the effect of administration of cow urine powder SMP blends and standard drug glyclazide diabetic rats was determined by measuring the fasting blood glucose levels and serum lipid profiles.
# (§5) Day 3 of induction was designed as day 1 for administration of the standard drug glyclazide and cow urine SMP blends to diabetic rats, fasting blood glucose levels measured on days 1, 5, 10 and 15 of the experiment period. Other parameters were determined on after day 15 and residual study was carried out for another 15 days to observe the reappearance diabetes.
# (§6) Blood glucose was measured by using Accu-Check Active Glucometer (Roche) and the result was expressed as milligram per deciliter (mg/dl). This instrument is working on the principle of photometry.
# [2] = system: streptozotocin treated diabetic rats; assay: Serum lipid profile (cholesterol, LDL, HDL, triglyceride) in streptozotocin treated diabetic rats; details: for Lipid profile Cholesterol / Lipid profile HDL / Lipid profile LDL / Lipid profile Triglyceride: after 15th day, Glyclazide 1.44 mg/200 g body weight daily
# Protocol: as §1, §2, §3, §4, §5
# The serum lipid profile parameters such as cholesterol, HDL, LDL and triglycerides content were studied by using blood serum obtained during the experiments.
# Cholesterol content in the blood samples were analyzed by using Bio Chemistry
# Analyzer which is working on the principle of Lambert's-Beer's law.
# For estimation of triglycerides, Bio-chemistry Analyzer was used.
# [3] = system: streptozotocin treated diabetic rats; assay: Residual effect on blood glucose levels of diabetic rats during 15-day residual period after treatment; details: residual period after withdrawal, Glyclazide 1.44 mg/200 g
# Protocol: as §5, §6
# Residual effect of standard drug glyclazide group, skim milk powder group and cow urine powder SMP blends groups (100, 200 and 400 mg) for residual of blood glucose levels in streptozotocin treated rats for 15 days and observations were recorded.
# [4] = starting value, Glyclazide group
smiles,measurement,setting,value
"Cc1ccc(S(=O)(=O)NC(=O)NN2CC3CCCC3C2)cc1 (centres unmarked) [Standard Glyclazide, Glyclazide]",Blood glucose on 15th day,[1],125.25 ± 12.33 mg/dL
same,Blood glucose on 15th day,[1]; listed as glyclazide,125.25 mg/dL and 125.2 mg/dL
same,Blood glucose on 1st day,[1],599.16 ± 57.10 mg/dL
same,Blood glucose on 1st day,[1]; listed as glyclazide,599.1 mg/dL
same,percent reduce of blood glucose on 15th day,"[1]; vs 1st day, Glyclazide 1.44 mg/200 g body weight daily",(79.09%)
same,Lipid profile Cholesterol,[2],67.72 ± 3.37 mg/dL
same,Lipid profile HDL,[2],51.55 ± 1.91 mg/dL
same,Lipid profile LDL,[2],16.17 ± 5.25 mg/dL
same,Lipid profile Triglyceride,[2],95.35 ± 3.10 mg/dL
same,Lipid profile Cholesterol,[2]; listed as glyclazide,67.72 mg/dL
same,Lipid profile HDL,[2]; listed as glyclazide,51.55 mg/dL
same,Lipid profile LDL,[2]; listed as glyclazide,16.17 mg/dL
same,Lipid profile Triglyceride,[2]; listed as glyclazide,95.35 mg/dL
same,blood HDL level before treatment (increased from),[2]; [4],41.75 mg/dL
same,blood LDL level before treatment (reduced from),[2]; [4],83.73 mg/dL
same,blood cholesterol level before treatment (reduced from),[2]; [4],125.44 mg/dL
same,triglyceride level before treatment (reduced from),[2]; [4],187.96 mg/dL
same,Blood glucose level 20th Day,[3],176.50 ± 29.75 mg/dL
same,Blood glucose level 25th Day,[3],174.76 ± 27.42 mg/dL
same,Blood glucose level 30th Day,[3],201.57 ± 29.85 mg/dL
same,Blood glucose level 20th Day,[3]; listed as glyclazide,176.50 mg/dL
same,Blood glucose level 25th Day,[3]; listed as glyclazide,174.76 mg/dL
same,Blood glucose level 30th Day,[3]; listed as glyclazide,201.57 mg/dL
